# Experimental data from patent US5114851A, “Light activated acyl-enzymes” (Duke University, priority 1989, dated 1992).
# Where a name gives a salt, the structure may show the parent alone.
# Assays:
# [1] = system: thrombin; test: Acylation (inactivation) of thrombin monitored by chromogenic assay; type: biochemical; details: 1- to 5-fold excess of compound; thrombin 1.5 μM; pH 7.4 Tris buffer
# Source text: The reaction of 4-Amidinophenyl-(E)-2-hydroxy-4-diethylamino-α-methylcinnamate hydrocholoride (Compound F) with thrombin to form an acyl-thrombin (hereinafter "DEA acyl-thrombin") was monitored by chromogenic assay. See A. Turner, et al., 110 J.Am.Chem.Soc. 244 (1988); B. Blomback, Theoretical Considerations of Substrate Structures Governing Enzyme Specificity, 3 (M. Scully and V. Kakkar eds 1979)(New York: Churchill Livingston). A 1- to 5-fold excess of 4-Amidinophenyl-(E)-2-hydroxy-4-diethylamino-α-methylcinnamate with thrombin (1.5 μM) in pH 7.4 Tris buffer led to complete loss of thrombin activity in less than 1 hour.
# [2] = Photolysis of model compounds and cyclization of the cis photoisomer to the coumarin (conventional spectroscopy or flash photolysis); type: physicochemical
# Source text: Preliminary to our studies of the enzyme system, we studied the photochemistry of the model compounds Ethyl-(E)-2-methoxy-4-diethylamino-α-methylcinnamate and Ethyl-(E)-2-hydroxy-4-diethylamino-α-methylcinnamate (hereinafter "DEA acyl", as this compound models DEA acyl-thrombin with ethyl in place of thrombin). Photolysis of Ethyl-(E)-2-methoxy-4-diethylamino-α-methylcinnamate with 366 nm light results in a rapid decrease in absorbance as the cis photoisomer is formed (In all photolyses reported here, except for the laser flash studies, the source lamp was a mercury 500 W high pressure lamp. The 366 nm emission was isolated by a Bausch and Lomb grating monochromator). At the photostationary state, the cis photoisomer is 60% of the mixture, and the ε of the cis compound is <40% of that of the trans at 360 nm. Photolysis for 5 minutes of DEA acyl in 98% ethanol/2% pH 7.4 Tris buffer gives a sharp decrease in the absorbance at 360 nm, followed by a slow increase in absorbance at 380 nm due to the dark formation of the 3-methyl-7-N,N-diethylamino-coumarin (hereafter "the coumarin"). The increase in the absorbance due to the coumarin is first order with kc =7.17·10^-4 s^-1. The presence of the cis isomer has been confirmed by NMR after photolysis as <0° C. […] Photolysis of trans DEA acyl in Tris buffer alone gives a clean conversion to coumarin with an isosbestic point observed at 370 nm. Thus, in Tris and using conventional spectroscopy, there is no evidence for the formation of cis DEA acyl in the conversion of the trans isomer to coumarin, but flash photolysis experiments (vide infra) indicate that the cis intermediate is formed, but is very reactive in this solvent.
# No evidence for a cis acyl enzyme photoisomer is seen by conventional spectroscopy. However, flash photolysis (10 nsec) of DEA acyl or DEA acyl-thrombin in Tris buffer with 355 nm light from a Nd/Yad laser does give evidence for the cis photoisomer. For both DEA acyl and DEA acyl-thrombin, the flash results in an immediate decrease in absorbance at 380 nm, followed by a first order increase of absorbance as the coumarin forms from the cis intermediate.
smiles,measurement,setting,value
"CCN(CC)c1ccc(/C=C(\C)C(=O)Oc2ccc(C(=N)N)cc2)c(O)c1 [Compound F, 2-Propenoic acid, 3-(2-hydroxy-4-diethylaminophenyl)-2-methyl-, 4-(aminoiminomethyl)phenyl ester,(E)-, monohydrochloride salt]",loss of thrombin activity,[1],complete loss
same,time to complete loss of thrombin activity,[1],less than 1 hour
CCOC(=O)/C(C)=C/c1ccc(N(CC)CC)cc1OC [Ethyl-(E)-2-methoxy-4-diethylamino-α-methylcinnamate],ε of the cis compound relative to that of the trans,[2]; at 360 nm,< 40%
CCOC(=O)/C(C)=C\c1ccc(N(CC)CC)cc1O [cis DEA acyl],First Order Rate Constant (cyclization of cis photoisomer to the coumarin),"[2]; 2/98 ethanol/Tris pH 7.4, 23° C., flash photolysis",1.7 ± 0.5 s⁻¹
same,increase of the rate of cyclization with solvent,[2]; 50/50 ethanol/Tris buffer versus 98% ethanol/2% Tris,two orders of magnitude
same,Half-Life of cyclization to give the coumarin,"[2]; 50/50 ethanol/Tris pH 7.4, 23° C.",0.118 min
same,Half-Life of cyclization to give the coumarin,"[2]; 98/2 ethanol/Tris pH 7.4, 23° C.",16.1 min
